The test system of data set [1] is HBV replication in HepAD38 cells. Kind of data set: Anti-HBV replication assay in HepAD38 cells (QPCR of extracellular HBV DNA). In kind it is cell-based, HBV (genotype D, serotype ayw). Particulars: Hepatitis B virus, 168 h, 7 days incubation, extracellular HBV DNA by QPCR, read-out: Anti-HBV EC50. The method, boiled down:
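EC50 values reflect 50% reduction of extracellular HBV DNA, measured by QPCR after 7-day treatment of tetracycline-deprived HepAD38 cells with compound […].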

Data set [2] is described as follows: In vitro cytotoxicity assay (MTT cell viability) in HepG2 cells. In kind it is cell-based, human. To be noted: human. The method, boiled down:
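Read-out: MTT formazan absorbance at 492 nm, expressed as % of vehicle signal; CC50 by 4-parameter non-linear regression. Parental HepG2, 20,000 cells/well, treated 7 days with compound from 30 μM down to 1.0 nM.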

Structures are written as SMILES.

As a reminder, the EC50 is the concentration at which the effect is half-maximal. Usually CC50 stands for the concentration giving 50% cytotoxicity. A higher CC50 goes with better tolerance by the cells.

As to `Cc1cc(NC(=O)c2c(C)c(C(=O)C(=O)NC3(CO)CC3)n3c2CCCC3)ccc1F` [Example 445, N-(4-fluoro-3-methylphenyl)-3-(2-((1-(hydroxymethyl)cyclopropyl)amino)-2-oxoacetyl)-2-methyl-5,6,7,8-tetrahydroindolizine-1-carboxamide], the EC50 in data set [1] was below 0.05 µM. In data set [2], this molecule showed a CC50 at 7 days of 5 to 30 µM.

As for `Cc1cc(NC(=O)c2c(C)c(C(=O)C(=O)NC3CCN(c4cccnn4)CC3)n(C)c2C)ccc1F` [Example 660, N-(4-fluoro-3-methylphenyl)-1,2,4-trimethyl-5-(2-oxo-2-((1-(pyridazin-3-yl)piperidin-4-yl)amino)acetyl)-1H-pyrrole-3-carboxamide], the EC50 in data set [1] is below 0.05 µM. Besides, the half-maximal cytotoxic concentration (CC50) at 7 days in data set [2] was above 30 µM.

For the molecule `Cc1cc(NC(=O)c2c(C)c(C(=O)C(=O)N[C@@H]3CCC[C@H]3O)n(CCF)c2C)ccc1F` [Example 195, N-(4-fluoro-3-methylphenyl)-1-(2-fluoroethyl)-5-(2-(((1R,2R)-2-hydroxycyclopentyl)amino)-2-oxoacetyl)-2,4-dimethyl-1H-pyrrole-3-carboxamide], the EC50 in data set [1] was below 0.05 µM. Further, the cytotoxic concentration (CC50) at 7 days in data set [2] was above 30 µM.

Turning to `Cc1noc([C@@H](NC(=O)C(=O)c2c(Cl)c(C(=O)Nc3ccc(F)c(C)c3)c3n2CCC3)C(C)C)n1` [Example 543, (S)-6-chloro-N-(4-fluoro-3-methylphenyl)-5-(2-((2-methyl-1-(3-methyl-1,2,4-oxadiazol-5-yl)propyl)amino)-2-oxoacetyl)-2,3-dihydro-1H-pyrrolizine-7-carboxamide], in data set [1], the concentration giving a half-maximal response (EC50) is below 0.05 µM. In data set [2], this molecule registered a CC50 at 7 days above 30 µM.

On to `Cc1cc(NC(=O)c2cc(C(=O)C(=O)NC(C)(C)CO)n3c2CCCC3)ccc1F` [Example 411, N-(4-fluoro-3-methylphenyl)-3-(2-((1-hydroxy-2-methylpropan-2-yl)amino)-2-oxoacetyl)-5,6,7,8-tetrahydroindolixzine-1-carboxamide], for which the concentration for a half-maximal effect (EC50) in data set [1] is 0.05 to 0.499 µM. Besides, the cytotoxic concentration (CC50) at 7 days in data set [2] is above 30 µM.

Consider `Cc1cc(NC(=O)c2c(C)c(C(=O)C(=O)Nc3ncc(C(F)(F)F)s3)n(C)c2C)ccc1F` [Example 317, N-(4-fluoro-3-methylphenyl)-1,2,4-trimethyl-5-(2-oxo-2-((5-(trifluoromethyl)thiazol-2-yl)amino)acetyl)-1H-pyrrole-3-carboxamide], for which the EC50 in data set [1] was above 1 µM. For the same molecule, the 50% cytotoxic concentration (CC50) at 7 days in data set [2] was in the range of 5 to 30 µM.

In the case of `Cc1cc(NC(=O)c2c(C)c(C(=O)C(=O)NC3CC(=O)Nc4ccccc43)n(C)c2C)ccc1F` (stereo not drawn) [Example 626, N-(4-fluoro-3-methylphenyl)-1,2,4-trimethyl-5-(2-oxo-2-((2-oxo-1,2,3,4-tetrahdyroquinolin-4-yl)amino)acetyl)-1H-pyrrole-3-carboxamide], in data set [1], the EC50 is below 0.05 µM. Further, the CC50 at 7 days in data set [2] is above 30 µM.

On to `CC(C)(C)NC(=O)C(=O)c1cc(C(=O)Nc2ccc(F)c(Cl)c2)c2n1CCC2` [Example 535, 5-(2-(tert-butylamino)-2-oxoacetyl)-N-(3-chloro-4-fluorophenyl)-2,3-dihydro-1H-pyrrolizine-7-carboxamide], for which the EC50 in data set [1] is below 0.05 µM. This molecule yielded a CC50 at 7 days in data set [2] of 0.5 to 4.99 µM.

As for `Cc1cc(NC(=O)c2c(C)c(C(=O)C(=O)NC(C)(C)COC(F)F)n(C)c2C)ccc1F` [Example 718, 5-(2-((1-(difluoromethoxy)-2-methylpropan-2-yl)amino)-2-oxoacetyl)-N-(4-fluoro-3-methylphenyl)-1,2,4-trimethyl-1H-pyrrole-3-carboxamide], in data set [1], the half-maximal effective concentration (EC50) is below 0.05 µM. The half-maximal cytotoxic concentration (CC50) at 7 days in data set [2] lay within 5 to 30 µM.

As to `Cc1cc(NC(=O)c2cc(C(=O)C(=O)NC(C)(C)C)n3c2CCCC3)cc(F)c1F` [Example 397, 3-(2-(tert-butylamino)-2-oxoacetyl)-N-(3,4-difluoro-5-metthylphenyl)-5,6,7,8-tetrahydroindolizine-1-carboxamide], the EC50 in data set [1] lay in the range of 0.05 to 0.499 µM. In data set [2], the half-maximal cytotoxic concentration (CC50) at 7 days is 5 to 30 µM.

Take `Cc1cc(NC(=O)c2c(C)c(C(=O)C(=O)NC3(C(F)(F)F)CCOCC3)n(C)c2C)cnc1F` [Example 163, N-(6-fluoro-5-methylpyridin-3-yl)-1,2,4-trimethyl-5-(2-oxo-2-((4-(trifluoromethyl)tetrahydro-2H-pyran-4-yl)amino)acetyl)-1H-pyrrole-3-carboxamide]: the concentration for a half-maximal effect (EC50) in data set [1] is above 1 µM. The 50% cytotoxic concentration (CC50) at 7 days in data set [2] is above 30 µM.

For `Cc1c(C(=O)Nc2ccc(F)c(Cl)c2)c2n(c1C(=O)C(=O)NC1(CO)CC1)CCCC2` [Example 453, N-(3-chloro-4-fluorophenyl)-3-(2-((1-(hydroxymethyl)cyclopropyl)amino)-2-oxoacetyl)-2-methyl-5,6,7,8-tetrahydroindolizine-1-carboxamide], the concentration giving a half-maximal response (EC50) in data set [1] was 0.05 to 0.499 µM. The molecule further came in with a half-maximal cytotoxic concentration (CC50) at 7 days in data set [2] above 30 µM.

`CNC(=O)[C@@H](NC(=O)C(=O)c1c(C)c(C(=O)Nc2ccc(F)c(C)c2)c(C)n1C)C1CCCC1` [Example 125, (S)-5-(2-((1-cyclopentyl-2-(methylamino)-2-oxoethyl)amino)-2-oxoacetyl)-N-(4-fluoro-3-methylphenyl)-1,2,4-trimethyl-1H-pyrrole-3-carboxamide]: the EC50 in data set [1] was below 0.05 µM. In data set [2], this molecule registered a 50% cytotoxic concentration (CC50) at 7 days of 0.5 to 4.99 µM.

Take `Cc1cc(NC(=O)c2c(C)c(C(=O)C(=O)NC3CCC(F)(F)CC3)n(C)c2C)ccc1F` [Example 250, 5-(2-((4,4-difluorocyclohexyl)amino)-2-oxoacetyl)-N-(4-fluoro-3-methylphenyl)-1,2,4-trimethyl-1H-pyrrole-3-carboxamide]: in data set [1], the EC50 was below 0.05 µM. In data set [2], this molecule displayed a CC50 at 7 days of 5 to 30 µM.

On to `Cc1cc(NC(=O)c2c(C)c(C(=O)C(=O)N[C@H](C(=O)OC(C)(C)C)C(C)(C)C)n(C)c2C)ccc1F` [Example 23, tert-butyl (S)-2-(2-(4-((4-fluoro-3-methylphenyl)carbamoyl)-1,3,5-trimethyl-1H-pyrrol-2-yl)-2-oxoacetamido)-3,3-dimethylbutanoate], for which the half-maximal effective concentration (EC50) in data set [1] lay within 0.05 to 0.499 µM. The same molecule showed a CC50 at 7 days in data set [2] above 30 µM.

For the molecule `Cc1c(C(=O)Nc2ccc(F)c(Cl)c2)c2n(c1C(=O)C(=O)NCC(C)(C)CO)CCCC2` [Example 466, N-(3-chloro-4-fluorophenyl)-3-(2-((3-hydroxy-2,2-dimethylpropyl)amino)-2-oxoacetyl)-2-methyl-5,6,7,8-tetrahydroindolizine-1-carboxamide], in data set [1], the EC50 was 0.05 to 0.499 µM. The same molecule showed a cytotoxic concentration (CC50) at 7 days in data set [2] above 30 µM.

Consider `Cc1cc(NC(=O)c2c(C)c(C(=O)C(=O)N[C@]3(C)CC[C@H](O)CC3)n(C)c2C)ccc1F` [Example 228, N-(4-fluoro-3-methylphenyl)-5-(2-(((1s,4s)-4-hydroxy-1-methylcyclohexyl)amino)-2-oxoacetyl)-1,2,4-trimethyl-1H-pyrrole-3-carboxamide], for which, in data set [1], the EC50 is below 0.05 µM. Besides, the CC50 at 7 days in data set [2] was above 30 µM.

`Cc1c(C(=O)Nc2ccc(F)c(F)c2)c2n(c1C(=O)C(=O)NC1(CO)CC(F)(F)C1)CCCC2` [Example 459, 3-(2-((3,3-difluoro-1-(hydroxymethyl)cyclobutyl)amino)-2-oxoacetyl)-N-(3,4-difluorophenyl)-2-methyl-5,6,7,8-tetrahydroindolizine-1-carboxamide]: in data set [1], the EC50 was in the range of 0.05 to 0.499 µM. The 50% cytotoxic concentration (CC50) at 7 days in data set [2] was in the range of 5 to 30 µM.

Take `Cc1cc(NC(=O)c2c(C)c(C(=O)C(=O)NCC(=O)N3CCOCC3)n(C)c2C)ccc1F` [Example 299, N-(4-fluoro-3-methylphenyl)-1,2,4-trimethyl-5-(2-((2-morpholino-2-oxoethyl)amino)-2-oxoacetyl)-1H-pyrrole-3-carboxamide]: the EC50 in data set [1] was 0.05 to 0.499 µM. For the same molecule, in data set [2], the CC50 at 7 days was above 30 µM.

For `Cc1noc([C@@H](C)NC(=O)C(=O)c2c(Cl)c(C(=O)Nc3ccc(F)c(C)c3)c3n2CCC3)n1` [Example 546, (R)-6-chloro-N-(4-fluoro-3-methylphenyl)-5-(2-((1-(3-methyl-1,2,4-oxadiazol-5-yl)ethyl)amino)-2-oxoacetyl)-2,3-dihydro-1H-pyrrolizine-7-carboxamide], in data set [1], the 50% effective concentration (EC50) is below 0.05 µM. In data set [2], this molecule returned a 50% cytotoxic concentration (CC50) at 7 days above 30 µM.

Take `Cc1c(C(=O)Nc2ccnc(Cl)c2)c(C)n(C)c1C(=O)C(=O)N[C@H](C)C(F)(F)F` [Example 208, (R)-N-(2-chloropyridin-4-yl)-1,2,4-trimethyl-5-(2-oxo-2-((1,1,1-trifluoropropan-2-yl)amino)acetyl)-1H-pyrrole-3-carboxamide]: the concentration for a half-maximal effect (EC50) in data set [1] was below 0.05 µM. The same molecule yielded a cytotoxic concentration (CC50) at 7 days in data set [2] above 30 µM.

Regarding `Cc1c(C(=O)Nc2cc(F)c(F)c(F)c2)c(C)n(C)c1C(=O)C(=O)Nc1ccc(F)nc1` [Example 321, 5-(2-((6-fluoropyridin-3-yl)amino)-2-oxoacetyl)-1,2,4-trimethyl-N-(3,4,5-trifluorophenyl)-1H-pyrrole-3-carboxamide], the EC50 in data set [1] is below 0.05 µM. This molecule came in with a CC50 at 7 days in data set [2] of 5 to 30 µM.

In the case of `Cc1cc(NC(=O)c2c(C)c(C(=O)C(=O)NC3(CO)CC(F)(F)C3)n3c2CCCC3)ccc1F` [Example 441, 3-(2-((3,3-difluoro-1-(hydroxymethyl)cyclobutyl)amino)-2-oxoacetyl)-N-(4-fluoro-3-methylphenyl)-2-methyl-5,6,7,8-tetrahydroindolizine-1-carboxamide], in data set [1], the EC50 is below 0.05 µM. In data set [2], this molecule gave a CC50 at 7 days of 5 to 30 µM.

As for `Cc1c(C(=O)Nc2ccnc(Cl)c2)c(C)n(C)c1C(=O)C(=O)NC1C2CC3CC1CC(O)(C3)C2` [Example 209, N-(2-chloropyridin-4-yl)-5-(2-(((1R,2s,3S,5s,7s)-5-hydroxyadamantan-2-yl)amino)-2-oxoacetyl)-1,2,4-trimethyl-1H-pyrrole-3-carboxamide], the half-maximal effective concentration (EC50) in data set [1] is below 0.05 µM. The molecule also yielded a CC50 at 7 days in data set [2] above 30 µM.

These data come from patent US20190375708A1 (VenatoRx Pharmaceuticals, Inc., priority 2018, published 2019).
